Laboratory results: US12291504B2 (University of Pittsburgh—Of the Commonwealth System of …, priority 2018, dated 2025)
Like-named read-outs stand apart in the source and are kept apart here. Values belong to the molecule of their own block, whether it stands above or below them.

Tests used:
SULT1A3 [1] = biological target: T1, SULT1A3 (Homo sapiens, UniProt P0DMM9); assay: Equilibrium binding studies, SULT1A3 intrinsic fluorescence titration; set-up: Wild-type and mutant SULT1A3 coding regions were inserted into a pGEX-6P expression vector; N-His/GST/MBP triple-tag (N, cleaved yes); made in house; host or cells: E. coli BL21(DE3)
Method: 4-Tam binding affinities were determined in the absence and presence of saturating PAP. Binding was monitored via ligand-induced changes in SULT1A3 intrinsic florescence (λex=290 nm, λem=340 nm). Fluorescence intensities are normalized relative to [4-Tam]=0. Each data-point is the average of two independent determinations. Conditions: SULT (150 nM, active sites), PAP (0 or 0.50 mM), KPO4 (50 mM), pH 7.5, 25±2° C. The line through the data represents the least-squares best fit to a model that assumes a binding stoichiometry of one 4-Tam per subunit.
Equilibrium Binding Studies. In all cases, ligand binding to SULT1A3 was monitored via changes in the intrinsic fluorescence of the enzyme (λex=290 nm, λem=340 nm). Conditions: SULT (50 nM, active sites), KPO4 (50 mM), pH 7.5, 25±2° C. Titrations were performed in triplicate. Data were averaged and least-squares fit using a model that assumes a single binding site per monomer (29-31). Ligand concentration was varied from 0.10-40×Kd.
As is seen in Eq. 6, Kiso and kcat ratios approach equivalence as Kiso becomes >>1. To assess the extent to which this equivalence holds for SULT1A3, Kiso values were determined as described previously (29-33). In short—As nucleotide binds and the cap closes, a pore forms at the acceptor-binding site. The affinity of an acceptor that is too large to pass through the pore is diminished by the presence of nucleotide, which fosters cap closure. At saturating nucleotide, the apparent affinity, Kapp, of such acceptors for the fully cap-closed enzyme is given by Equation 7 (29-33), where Kd is the affinity for the cap-open (nucleotide-free) form of the enzyme. Kapp=Kd×(1+Kiso) (7) Kapp and Kd were obtained by fitting titrations that monitor changes in SULT1A3 intrinsic fluorescence as a function of the concentration of 4-hydroxytamoxifen, a large acceptor (29) (see, FIG. 2). Titrations were performed at 0 and saturating PAP (0.50 mM, 17×Kd).

SULT1A3 [2] = biological target: T1, SULT1A3; assay: SULT1A3 inhibition studies, 1-HP initial-rate fluorescence assay; type: biochemical; set-up: Wild-type and mutant SULT1A3 coding regions were inserted into a pGEX-6P expression vector; N-His/GST/MBP triple-tag (N, cleaved yes); made in house; host or cells: E. coli BL21(DE3); inhibition: dose or concentration left out as unconfirmed; conditions: for inhibition of SULT1A3 (in words): Ki could not be determined
Method: The initial rates of SULT catalyzed 1-HP sulfonation are plotted as a function of inhibitor concentration, and are normalized relative to [inhibitor]=0. Enzyme activity was monitored by the sulfonation dependent change in 1-HP fluorescence (λex=325 nm, λem=370 nm). Less than 5% of the concentration-limiting substrate converted at the reaction endpoint was consumed during initial-rate measurements. Each point is the average of three independent determinations. Conditions: SULT (20 nM, active sites), PAPS (0.50 mM, 17×Km), 1-HP (5.0 μM, 61×Km), KPO4 (50 mM), pH 7.5, 25±2° C.
(§1) Initial-Rate Studies. Initial-rate parameters for the labeled or mutant SULT1A3 constructs were determined using a previously described 1-HP assay (25). Briefly, reactions were initiated by addition of PAPS (0.50 mM, 17×Km) to a solution containing enzyme (20 nM, active sites), 1-HP (2.0 μM, ˜24×Km), and KPO4 (50 mM), pH 7.5, 25±2° C. Reactions were monitored via fluorescence change associated with the conversion of 1-HP to 1-HP-S (λex=325 nm, λem=370 nm). Keq for the 1-HP sulfonation reaction is −250. Given the reaction conditions outlined above, ≥99% of 1-HP is converted to 1-HP-S, and ˜0.4% of PAPS is converted to PAP at equilibrium. […] Reaction progress curves were analyzed to obtain initial-rate parameters as described previously (26,27).
(§2) Inhibition studies. Inhibition parameters were determined under conditions identical to those described above (see, Initial-Rate Studies) except that [1-HP] was increased to 5.0 μM (˜61×Km) and inhibitor concentration was varied between 0.20-20×Ki. Ki was obtained using a least-squares fit to the following partial inhibition equation (25,28): v=kcat·(Ki+(1/kcat inh)·[I])/(Ki+[I]), where kcat inh is enzyme turnover at saturating substrates and allosteric inhibitor.
as §1, with “(47).” for “(25).”, “˜250.” for “−250.”, “(48,49).” for “(26,27).”
as §2, with “(47,50): V/Vax=(Ki+α·[I])/(Ki+[I]),” for “(25,28): v=kcat·(Ki+(1/kcat inh)·[I])/(Ki+[I]),”, “α” for “kcat inh”, “is percentage of” for “is”, “turnover remaining” for “turnover”

Mouse (1D1) = Mouse (1D1) (Mus musculus, UniProt Q3UZZ6); assay: Inhibition of SULT1A3 homologues in different species: Mouse; type: biochemical
Method: (§3) Compounds 12, 23 and 25 were also tested for Inhibition of SULT1A3 in different species.
(§4) Inhibition of SULT1A3 Homologues in Different Species. SULT1A3 is only expressed in humans and higher primates. SULT1D1 is the isoform expressed in dogs and rodents that sulfonates neurotransmitters and is most similar to SULT1A3. Three synthesized allosteres (12, 23, and 25) were tested against both 1A3 and 1D1 from different species in order to explore testing in animal models. […] Mice have been engineered such that their SULT1A1/2 enzymes have been knocked out and replaced with the human versions of those isoforms.

Rhesus Macaque (1A3) = Rhesus Macaque (1A3) (Macaca mulatta, UniProt A0A5F7ZQH3); assay: Inhibition of SULT1A3 homologues in different species: Rhesus Macaque; type: biochemical
Method: as §3, §4

SULT1E1 = biological target: T2, SULT1E1 (Homo sapiens, UniProt P49888); assay: SULT1E1 inhibition test; type: biochemical; conditions: at 50 uM
T2 sequence (P49888 1-294): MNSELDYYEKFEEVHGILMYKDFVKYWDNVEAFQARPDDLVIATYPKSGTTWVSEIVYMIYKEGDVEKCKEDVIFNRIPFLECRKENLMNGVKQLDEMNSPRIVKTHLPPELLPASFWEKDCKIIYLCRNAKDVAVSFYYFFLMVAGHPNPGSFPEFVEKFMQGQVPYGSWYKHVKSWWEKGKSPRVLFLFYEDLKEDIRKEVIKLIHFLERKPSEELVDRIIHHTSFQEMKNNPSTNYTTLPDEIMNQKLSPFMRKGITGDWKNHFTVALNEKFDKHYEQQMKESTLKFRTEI

Rat (1D1) = biological target: T3, Rat (1D1) (Rattus norvegicus, UniProt G3V9R3); assay: Inhibition of SULT1A3 homologues in different species: Rat; type: biochemical
T3 sequence (G3V9R3 1-295): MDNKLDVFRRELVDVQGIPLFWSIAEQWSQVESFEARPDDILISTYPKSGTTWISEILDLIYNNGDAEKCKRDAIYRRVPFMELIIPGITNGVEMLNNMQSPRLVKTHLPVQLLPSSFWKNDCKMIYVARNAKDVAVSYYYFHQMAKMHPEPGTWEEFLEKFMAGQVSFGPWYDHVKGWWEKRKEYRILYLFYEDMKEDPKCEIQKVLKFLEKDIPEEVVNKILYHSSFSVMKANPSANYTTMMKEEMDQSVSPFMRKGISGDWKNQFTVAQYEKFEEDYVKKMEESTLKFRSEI
Method: as §3, §4

SULT2A1 = biological target: T4, SULT2A1 (Homo sapiens, UniProt Q06520); assay: SULT2A1 inhibition test; type: biochemical; conditions: at 50 uM
T4 sequence (Q06520 1-285): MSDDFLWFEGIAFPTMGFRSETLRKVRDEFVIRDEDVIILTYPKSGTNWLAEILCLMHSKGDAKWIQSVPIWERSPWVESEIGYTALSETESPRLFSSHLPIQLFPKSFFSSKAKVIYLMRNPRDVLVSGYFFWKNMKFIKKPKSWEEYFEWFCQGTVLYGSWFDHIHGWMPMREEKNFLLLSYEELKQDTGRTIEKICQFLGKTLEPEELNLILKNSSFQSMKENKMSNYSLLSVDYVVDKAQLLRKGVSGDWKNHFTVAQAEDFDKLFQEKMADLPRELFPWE

Green Monkey (1A3) = Green Monkey (1A3) (Chlorocebus sabaeus, UniProt Z9LO20H8W3); assay: Inhibition of SULT1A3 homologues in different species: Green Monkey; type: biochemical
Method: as §3, §4

Dog (1D1) = Dog (1D1) (Canis lupus familiaris, UniProt A0A8I3RXJ1); assay: Inhibition of SULT1A3 homologues in different species: Dog; type: biochemical
Method: as §4, with “Compounds 12, 23 and 25 were also tested for Inhibition of SULT1A3 in different species. Inhibition” for “Inhibition”

SULT1A1 = SULT1A1 (Homo sapiens, UniProt P50225); assay: SULT1A1 inhibition, 1-HP initial-rate assay; type: biochemical; conditions: ND = inhibition was not detected at 30 μM compound, parentheses one standard error
Method: as §2
as §2, with “(47,50): V/Vax=(Ki+α·[I])/(Ki+[I]),” for “(25,28): v=kcat·(Ki+(1/kcat inh)·[I])/(Ki+[I]),”, “α” for “kcat inh”, “is percentage of” for “is”, “turnover remaining” for “turnover”

[3] = read-out: Kd, determined by fluorescence titration

T1 sequence (P0DMM9 whole entry): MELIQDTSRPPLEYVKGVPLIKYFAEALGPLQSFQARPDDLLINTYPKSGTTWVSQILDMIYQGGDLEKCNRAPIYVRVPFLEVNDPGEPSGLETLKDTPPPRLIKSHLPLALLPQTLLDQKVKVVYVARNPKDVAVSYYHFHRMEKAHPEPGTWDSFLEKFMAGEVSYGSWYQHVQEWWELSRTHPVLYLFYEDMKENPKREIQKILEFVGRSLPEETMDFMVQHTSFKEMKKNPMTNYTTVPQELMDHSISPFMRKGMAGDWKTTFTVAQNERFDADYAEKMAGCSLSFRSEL
Mouse (1D1), sequence (Q3UZZ6 whole entry): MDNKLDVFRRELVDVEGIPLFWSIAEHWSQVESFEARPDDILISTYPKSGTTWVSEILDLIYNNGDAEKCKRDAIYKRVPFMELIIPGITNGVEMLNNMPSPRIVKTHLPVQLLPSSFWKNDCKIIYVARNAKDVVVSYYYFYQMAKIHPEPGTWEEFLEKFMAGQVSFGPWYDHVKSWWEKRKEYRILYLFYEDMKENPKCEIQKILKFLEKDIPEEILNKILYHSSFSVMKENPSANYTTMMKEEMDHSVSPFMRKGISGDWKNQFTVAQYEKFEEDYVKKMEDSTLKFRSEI
Rhesus Macaque (1A3), sequence (A0A5F7ZQH3 1-295): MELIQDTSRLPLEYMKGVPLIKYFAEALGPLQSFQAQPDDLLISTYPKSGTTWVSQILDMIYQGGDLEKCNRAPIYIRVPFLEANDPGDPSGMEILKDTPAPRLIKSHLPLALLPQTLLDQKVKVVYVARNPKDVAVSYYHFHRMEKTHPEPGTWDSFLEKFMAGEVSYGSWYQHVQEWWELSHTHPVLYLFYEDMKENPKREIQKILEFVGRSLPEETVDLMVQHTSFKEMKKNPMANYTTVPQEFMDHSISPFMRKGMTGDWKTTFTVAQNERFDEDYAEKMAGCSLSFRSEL
Dog (1D1), sequence (A0A8I3RXJ1 entry or part of it): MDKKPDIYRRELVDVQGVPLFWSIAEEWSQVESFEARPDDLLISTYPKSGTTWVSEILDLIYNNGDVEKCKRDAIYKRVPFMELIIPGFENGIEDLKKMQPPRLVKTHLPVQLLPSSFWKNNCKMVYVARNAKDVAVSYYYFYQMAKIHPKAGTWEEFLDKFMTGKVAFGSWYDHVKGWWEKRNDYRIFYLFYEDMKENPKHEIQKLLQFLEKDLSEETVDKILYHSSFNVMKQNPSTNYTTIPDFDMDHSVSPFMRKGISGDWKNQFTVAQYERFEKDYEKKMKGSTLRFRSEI
Green Monkey (1A3), sequence (Z9LO20H8W3 1-295): as the sequence (A0A5F7ZQH3 1-295) above, with T7A, M15V, Y23C, K230R, F247Y, E278A counted along it
SULT1A1, sequence (P50225 whole entry): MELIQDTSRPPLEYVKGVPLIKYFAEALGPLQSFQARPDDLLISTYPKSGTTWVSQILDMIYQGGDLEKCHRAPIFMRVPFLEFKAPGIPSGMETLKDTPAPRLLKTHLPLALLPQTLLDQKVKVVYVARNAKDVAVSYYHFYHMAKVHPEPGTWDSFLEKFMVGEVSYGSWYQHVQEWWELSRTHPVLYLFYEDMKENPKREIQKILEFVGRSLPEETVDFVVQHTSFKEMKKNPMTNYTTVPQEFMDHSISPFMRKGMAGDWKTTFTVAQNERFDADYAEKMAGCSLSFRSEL

Molecule: 4-Hydroxytamoxifen [Compound 4-Tam, reference compound]
Kd (SULT1A3 [1]; saturating PAP 0.50 mM, SULT 150 nM, read-out: Kd (+PAP)): 5400 nM

Molecule: O=S(=O)(O)Oc1ccc2ccc3cccc4ccc1c2c34 [Compound 1-HP-S, reference compound]
Kd (SULT1A3 [1]; read-out: Kd, affinity of 1-HP-S for SULT1A3): 240000 ± 30000 nM

Molecule: CC(C)Cc1ccc2cc(/C=C/C(N)=O)cnc2n1 [Compound 23, (E)-3-(7-Isobutylnaphthyridin-3-yl)acrylamide]
affinity for SULT1A3 (in words) (SULT1A3 [2]): low nanomolar affinity | Ki (SULT1A3 [2]; ND = inhibition was not detected at 30 μM compound, parentheses one standard error, read-out: SULT1A3 Ki/μM): 0.0092 µM | Human (1A3) % inh (SULT1A3 [2]; parentheses one standard error): 97 (2) % | inhibition (SULT1A3 [2]; parentheses one standard error, read-out: SULT1A3 Enzyme Inhibition at Saturation/%): 96% | Ki (SULT1A3 [2]; standard error in neighbouring cell, read-out: Human (1A3) Ki): 0.0096 µM | inhibition at saturation (SULT1A3 [2]; text b218): almost complete inhibition | Mouse (1D1) % inh (Mouse (1D1)): 92 (3) % | Ki (Mouse (1D1); parentheses one standard error): 65 nM | Rhesus Macaque (1A3) % inh (Rhesus Macaque (1A3)): 97 (2) % | Ki (Rhesus Macaque (1A3); parentheses one standard error): 12 nM | inhibition of SULT1E1 (SULT1E1): no inhibition was detected | Rat (1D1) % inh (Rat (1D1)): 37 (4) % | Ki (Rat (1D1); parentheses one standard error): 270 nM | inhibition of SULT2A1 (SULT2A1): no inhibition was detected | Green Monkey (1A3) % inh (Green Monkey (1A3)): 91 (4) % | Ki (Green Monkey (1A3); parentheses one standard error): 72 nM | Dog (1D1) % inh (Dog (1D1)): 81 (4) % | Ki (Dog (1D1); standard error in neighbouring cell): 117 nM | Ki (SULT1A1): 3.1 µM | inhibition (SULT1A1; read-out: SULT1A1 Enzyme Inhibition at Saturation/%): 61%

The next lines start with the values.

inhibition of SULT1A3 (in words) (SULT1A3 [2]): do not inhibit | Kd (SULT1A3 [1]; [3]): 160 nM
Molecule: CC(C)c1ccc2cc(CO)ccc2n1 [Compound 1, (2-Isopropylquinolin-6-yl)methanol]

inhibition of SULT1A3 (in words) (SULT1A3 [2]): do not inhibit | Kd (SULT1A3 [1]; [3]): 87 nM
Molecule: CC(C)CCc1ccc2cc(CO)ccc2n1 [Compound 2]
